Paper PMC4423513, “Function of glutathione peroxidases in legume root nodules” (Journal of Experimental Botany, 2015)

Assays:
LjGpx1 = biological target: T1, LjGpx1 (Lotus japonicus, UniProt Q56VU1); assay: NADPH oxidation at […] nm, thioredoxin-coupled, steady state; assay type: biochemical; conditions: apparent Km; 20 μM poplar Trxh1, 1 μM A. thaliana NADPH-Trx reductase, 0.4 mM NADPH, 30 mM Tris-HCl pH 8.0, 1 mM EDTA; acyl chains of lipid not defined
T1 sequence (Q56VU1 72-236): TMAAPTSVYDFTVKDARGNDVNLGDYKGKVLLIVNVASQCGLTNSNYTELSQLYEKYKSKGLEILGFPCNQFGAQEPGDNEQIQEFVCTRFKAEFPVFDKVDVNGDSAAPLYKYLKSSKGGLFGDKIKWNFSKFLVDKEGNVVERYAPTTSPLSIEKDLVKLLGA

LjGpx3 = assay: as above; assay type: biochemical, Lotus japonicus; conditions: apparent Km, 20 μM poplar Trxh1, 1 μM A. thaliana NADPH-Trx reductase, 0.4 mM NADPH, 30 mM Tris-HCl pH 8.0, 1 mM EDTA

Km (LjGpx1) [µM] | Km (LjGpx3; acyl chains of lipid not defined) [µM] | Compound | Km (LjGpx3) [µM]
1.6 | 1.6 | Phosphatidylcholine hydroperoxide | 
 |  | CC(C)(OO)c1ccccc1 [Cumene hydroperoxide] | 214
 |  | CC(C)(C)OO [t-Butyl hydroperoxide] | 167
